In article PMC11062894, “Protein-based bandpass filters for controlling cellular signaling with chemical inputs” (Nature Chemical Biology, 2023):
Where “and” joins values, the source holds several entries; their conditions need not be identical. Identical values can stand only once.

Experiments:
[1] = biological target: BclXL–LD3 interaction (Homo sapiens, UniProt Q07817); assay: SPR drug competition assay, BclXL–LD3; format: binding; settings: for Normalization of Response units / Response units: BclXL, Supp Fig 2a
[2] = biological target: Bcl2–LD3 interaction (Homo sapiens, UniProt P10415); assay: SPR drug competition assay, Bcl2–LD3; format: binding; settings: for Normalization of Response units / Response units: Bcl2, Supp Fig 2a
Procedure: Drug IC50 values for disrupting heterodimers were measured on a Biacore 8K device. A 5 µM portion of analyte was mixed with 10 µM of BclXL or Bcl2 inhibitors according to the analyte. The mixtures of analyte and drug were injected onto the LD3 immobilized channel.
(§1) Binding affinities of SPR drug competition assays were calculated using three-parameter nonlinear regression in GraphPad Prism (v.8.3.0). Representative data of cell assays are presented as individual values and mean values (bars). n = 3 refers to biological replicates. All IC50 or EC50 values of cell assays reported were calculated using four-parameter nonlinear regression ± s.d. Bandpass features of cutoff concentrations and Bandwidth90% were estimated based on the curve fitted using bell-shaped curve nonlinear regression in GraphPad Prism (v.8.3.0). […]
This assay is designed to test if the drug of interest can specifically disrupt the
interaction between LD3 and BclXL/Bcl2. The drug-receptors (Bcl2, BclXL) are immobilized on the
different channels of the sensor chip, then the binding sites are saturated with LD3. […]

[3] = biological target: GEMS with the dual-drug-controlled (A-1155463, venetoclax) switch (Bcl2 and BclXL–LD3) in HEK293T cells (Homo sapiens, UniProt P10415); assay: GEMS SEAP reporter assay, dual-drug-controlled (A-1155463, venetoclax) switch; format: cell-based; settings: for SEAP (U/L): Figure 2c, ON-phase
Source text: In the first step, we sought to construct a dual-drug-controlled switch to test whether the ON and OFF switching processes can be combined in our receptor architecture. We used Bcl2 and BclXL as the orthogonal drug receptors, which interact with the LD3 protein and respond to their own specific inhibitors. In such a setting, the dual-drug-controlled switch will turn ON in response to one drug and OFF in response to the other, thus mimicking bandpass filtering behavior (Supplementary Fig. 1d). […] To test the switch behavior, we employed the generalizable extracellular molecule sensor (GEMS) platform, which senses extracellular molecules and thus regulates cell surface signaling pathways (Fig. 2a). This receptor platform is based on a mutated EpoR extracellular and transmembrane domain fused to an IL-6RB intracellular domain. Dimerization of EpoR extracellular domains is controlled by N-terminally fused inducible dimerization domains, which drive IL-6RB activation and STAT3 signaling. The Bcl2 and BclXL–LD3 complexes were fused to the extracellular EpoR domains. […] The dimerization of Bcl2 and LD3 causes EpoR extracellular domain dimerization and triggers JAK/STAT3 signaling. Active STAT3 drives the expression of a reporter protein (secreted alkaline phosphatase (SEAP)) controlled by a STAT3-dependent promoter.
(§2) HEK293T cells were seeded in a 96-well plate 24 h before transfection. The transfection mix in each well consisted of 3 ng of constitutive human CMV promoter driven mammalian STAT3 expression vector (PhCMV-STAT3-pA), 30 ng of STAT3-induced reporter expression (OStat3-PhCMVmin-SEAP-pA) and 50 ng of expression vectors for each GEMS receptor chain (PSV40-IgK-(drughigh receptor)-EpoRm-IL-6RBm-pA and PSV40-IgK-(druglow receptor-GGGGSX3-LD3)-EpoRm-IL-6RBm-pA). For the specific drughigh receptor and druglow receptor used in the different cellular assays, they are indicated as wild type or with mutations. Then, plasmid DNA was mixed with 50 μl opti-MEM (Thermo Fisher) and 600 ng of polyethyleneimine (Polysciences, catalog no. 24765-1). For drug treatment experiments, drugs were added 12 h post-transfection and incubated with cells for 24 h before the SEAP reporter detection assay.
(§3) SEAP activity (U l^−1) in cell culture supernatants was quantified by kinetic measurements at 405 nm (1 minute per measurement for 30 cycles) of absorbance increase due to phosphatase-mediated hydrolysis of para-nitrophenyl phosphate (pNPP).
Binding affinities of SPR drug competition assays were calculated using three-parameter nonlinear regression in GraphPad Prism (v.8.3.0). Representative data of cell assays are presented as individual values and mean values (bars). n = 3 refers to biological replicates. All IC50 or EC50 values of cell assays reported were calculated using four-parameter nonlinear regression ± s.d. Bandpass features of cutoff concentrations and Bandwidth90% were estimated based on the curve fitted using bell-shaped curve nonlinear regression in GraphPad Prism (v.8.3.0).

[4] = biological target: GEMS with the dual-drug-controlled (venetoclax, A-1155463) switch (BclXL and Bcl2–LD3) in HEK293T cells (Homo sapiens, UniProt P10415); assay: GEMS SEAP reporter assay, dual-drug-controlled (venetoclax, A-1155463) switch; format: cell-based; settings: for SEAP (U/L): Figure 2f, OFF-phase
Procedure: as §2, §3, §1

[5] = biological target: BclXL; settings: cited from earlier work
[6] = test system: Bcl2; settings: cited from earlier work
[7] = Independent repeat, A-1155463 1 nM
[8] = Independent repeat, A-1155463 10 nM
[9] = Independent repeat, A-1155463 31.6 nM
[10] = Independent repeat, A-1155463 100 nM
[11] = Representative, A-1155463 10 nM
[12] = Representative, A-1155463 31.6 nM
[13] = Representative, A-1155463 100 nM
[14] = Representative, A-1155463 316 nM

Sequence of BclXL–LD3 interaction (Q07817 1-209 limits assumed): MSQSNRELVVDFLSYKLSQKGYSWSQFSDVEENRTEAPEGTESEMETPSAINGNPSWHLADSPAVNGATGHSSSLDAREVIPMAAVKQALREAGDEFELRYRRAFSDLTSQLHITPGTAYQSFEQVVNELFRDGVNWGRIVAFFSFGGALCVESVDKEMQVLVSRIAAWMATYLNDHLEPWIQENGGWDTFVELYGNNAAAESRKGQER
Sequence of Bcl2–LD3 interaction (P10415 1-207 limits assumed): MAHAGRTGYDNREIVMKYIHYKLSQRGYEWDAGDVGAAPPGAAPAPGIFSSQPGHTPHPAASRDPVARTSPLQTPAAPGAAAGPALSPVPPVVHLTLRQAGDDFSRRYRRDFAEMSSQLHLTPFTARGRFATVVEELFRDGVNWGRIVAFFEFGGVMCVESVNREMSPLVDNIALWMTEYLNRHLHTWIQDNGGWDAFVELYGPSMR
Sequence of GEMS with the dual-drug-controlled (A-1155463, venetoclax) switch (Bcl2 and BclXL–LD3) in HEK293T cells (Q07817 whole entry): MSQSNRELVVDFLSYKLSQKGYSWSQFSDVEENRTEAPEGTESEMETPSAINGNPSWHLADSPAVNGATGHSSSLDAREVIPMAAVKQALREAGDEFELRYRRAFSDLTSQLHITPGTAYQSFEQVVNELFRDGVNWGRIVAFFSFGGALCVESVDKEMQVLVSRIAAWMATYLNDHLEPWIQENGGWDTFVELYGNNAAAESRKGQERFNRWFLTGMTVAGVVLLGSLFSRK
Sequence of GEMS with the dual-drug-controlled (A-1155463, venetoclax) switch (Bcl2 and BclXL–LD3) in HEK293T cells (P10415 whole entry): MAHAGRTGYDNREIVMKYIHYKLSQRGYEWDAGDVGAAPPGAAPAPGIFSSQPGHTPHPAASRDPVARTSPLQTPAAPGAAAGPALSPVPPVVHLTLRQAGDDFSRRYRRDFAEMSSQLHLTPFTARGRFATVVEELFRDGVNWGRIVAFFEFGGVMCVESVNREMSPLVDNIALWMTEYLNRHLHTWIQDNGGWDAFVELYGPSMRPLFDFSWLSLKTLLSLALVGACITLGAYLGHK
Sequence of GEMS with the dual-drug-controlled (venetoclax, A-1155463) switch (BclXL and Bcl2–LD3) in HEK293T cells (P10415 whole entry): as above
Sequence of GEMS with the dual-drug-controlled (venetoclax, A-1155463) switch (BclXL and Bcl2–LD3) in HEK293T cells (Q07817 whole entry, further chain): as the sequence (Q07817 whole entry) above

## CN(C)CC#Cc1ccc(OCCCc2sc(N3CCc4cccc(C(=O)Nc5nc6ccccc6s5)c4C3)nc2C(=O)O)c(F)c1 [A-1155463]
[1]; A11 0.01
  Normalization of Response units: 102.002
  Response units: 136.071
[1]; A11 0.1
  Normalization of Response units: 97.9313
  Response units: 130.64
[1]; A11 1
  Normalization of Response units: 94.098
  Response units: 125.527
[1]; A11 10
  Normalization of Response units: 84.7556
  Response units: 113.064
[1]; A11 100
  Normalization of Response units: 61.7671
  Response units: 82.3973
[1]; A11 1000
  Normalization of Response units: 27.7573
  Response units: 37.0282
[1]; A11 10000
  Normalization of Response units: 14.6141
  Response units: 19.4952
[1]; prevents BclXL from binding to LD3
  IC50: 106 nM
[2]; A11 0.01
  Normalization of Response units: 92.1843
  Response units: 21.2577
[2]; A11 0.1
  Normalization of Response units: 80.8291
  Response units: 18.6392
[2]; A11 1
  Normalization of Response units: 73.8912
  Response units: 17.0393
[2]; A11 10
  Normalization of Response units: 65.6037
  Response units: 15.1282
[2]; A11 100
  Normalization of Response units: 63.1974
  Response units: 14.5733
[2]; A11 1000
  Normalization of Response units: 71.7979
  Response units: 16.5566
[2]; A11 10000
  Normalization of Response units: 76.7051
  Response units: 17.6882
[2]; SPR drug competition
  effect on the Bcl2–LD3 interaction: does not affect
[3]; A-1155463 dose response, SEAP, read-out: EC50 of the ON phase
  EC50: 23 nM
[3]; [7]
  SEAP (U/L): 42.7182 U/L and 41.8919 U/L and 38.4512 U/L
[3]; [8]
  SEAP (U/L): 156.072 U/L and 146.503 U/L and 188.411 U/L
[3]; [9]
  SEAP (U/L): 331.126 U/L and 300.096 U/L and 322.732 U/L
[3]; [10]
  SEAP (U/L): 407.571 U/L and 388.702 U/L and 469.003 U/L
[3]; Representative, A-1155463 1 nM
  SEAP (U/L): 15.8426 U/L and 13.5232 U/L and 13.6294 U/L
[3]; [11]
  SEAP (U/L): 26.67 U/L and 26.9995 U/L and 28.8916 U/L
[3]; [12]
  SEAP (U/L): 53.4598 U/L and 53.7585 U/L and 50.2237 U/L
[3]; [13]
  SEAP (U/L): 77.0863 U/L and 99.712 U/L and 86.8586 U/L
[3]; [14]
  SEAP (U/L): 74.2135 U/L
[4]; A-1155463-controlled OFF phase
  IC50: 103 nM
[4]; Fig 2e
  decrease in the OFF phase: close to tenfold
[4]; Independent repeat2, A-1155463 0.001 nM
  SEAP (U/L): 136.822 U/L and 169.801 U/L and 176.875 U/L
[4]; Independent repeat2, A-1155463 0.1 nM
  SEAP (U/L): 103.12 U/L and 204.542 U/L and 189.519 U/L
[4]; Independent repeat2, A-1155463 1 nM
  SEAP (U/L): 92.9798 U/L and 167.805 U/L and 150.91 U/L
[4]; Independent repeat2, A-1155463 10 nM
  SEAP (U/L): 77.7029 U/L and 130.847 U/L and 121.179 U/L
[4]; Independent repeat2, A-1155463 31.6 nM
  SEAP (U/L): 58.2163 U/L and 85.6507 U/L and 74.3645 U/L
[4]; Independent repeat2, A-1155463 100 nM
  SEAP (U/L): 37.6382 U/L and 39.3259 U/L and 34.7513 U/L
[4]; Independent repeat2, A-1155463 316 nM
  SEAP (U/L): 10.089 U/L and 12.1866 U/L and 9.268 U/L
[4]; Independent repeat2, A-1155463 1000 nM
  SEAP (U/L): 8.119 U/L and 8.577 U/L and 7.014 U/L
[4]; Independent repeat, A-1155463 0.001 nM
  SEAP (U/L): 544.306 U/L and 608.147 U/L and 640.878 U/L
[4]; Independent repeat, A-1155463 0.01 nM
  SEAP (U/L): 596.894 U/L and 605.557 U/L and 647.084 U/L
[4]; Independent repeat, A-1155463 0.1 nM
  SEAP (U/L): 460.121 U/L and 563.478 U/L and 550.17 U/L
[4]; [7]
  SEAP (U/L): 534.525 U/L and 587.537 U/L and 614.263 U/L
[4]; [8]
  SEAP (U/L): 528.461 U/L and 563.236 U/L and 515.428 U/L
[4]; [9]
  SEAP (U/L): 441.716 U/L and 544.633 U/L and 570.455 U/L
[4]; [10]
  SEAP (U/L): 308.86 U/L and 496.735 U/L and 439.283 U/L
[4]; Independent repeat, A-1155463 316 nM
  SEAP (U/L): 344.351 U/L and 390.049 U/L and 370.506 U/L
[4]; Representative, A-1155463 0.001 nM
  SEAP (U/L): 452.056 U/L and 640.781 U/L and 545.972 U/L
[4]; Representative, A-1155463 0.01 nM
  SEAP (U/L): 482.724 U/L and 651.317 U/L and 591.102 U/L
[4]; Representative, A-1155463 0.1 nM
  SEAP (U/L): 443.461 U/L and 562.309 U/L and 475.562 U/L
[4]; Representative, A-1155463 1 nM
  SEAP (U/L): 415.408 U/L and 516.033 U/L and 492.483 U/L
[4]; [11]
  SEAP (U/L): 401.724 U/L and 506.387 U/L and 481.044 U/L
[4]; [12]
  SEAP (U/L): 379.199 U/L and 421.639 U/L and 391.615 U/L
[4]; [13]
  SEAP (U/L): 206.108 U/L and 261.394 U/L and 267.779 U/L
[4]; [14]
  SEAP (U/L): 72.1001 U/L and 78.6193 U/L and 80.8054 U/L
[4]; Representative, A-1155463 1000 nM
  SEAP (U/L): 15.1572 U/L and 16.9337 U/L and 16.4073 U/L
[5]
  Kd: < 0.01 nM
[6]
  binding to Bcl2 weaker than to BclXL: more than 7,000 fold
